This is an account of results in patent US4670435A, “10,11-dihydro-5H-dibenzo[a,d]cycloheptadiene derivatives in a method for treating cardiac arrhythmia” (priority 1984, dated 1987).

One series has as its system arrhythmias. Briefly: Antiarrhythmic action, aconitine infusion, rat, oral administration. It counts as in vivo, Sprague-Dawley rats. As to conditions: for ED50: Rattus norvegicus, po, read-out: ED 50% (dose which prolongs the aconitine infusion duration by 50%). The procedure: (§1) The substances were administered orally to Sprague-Dawley rats weighing 200-250 g. 45 minutes thereafter, the animals were anesthetized with 100 mg/kg of thiobutabarbital Na, administered intraperitoneally. Aconitine, as an arrhythmogenic substance, was infused intravenously into the jugular vein 60 minutes after administration of the substance (dosage rate: 0.005 mg per kg per min). In the case of untreated animals (N=52), arrhythmias appeared in the ECG after 2.74±0.07 minutes, the appearance of these arrhythmias being delayed by antiarrhythmic agents in a dose-dependent manner.
(§2) The dose which prolongs the duration of aconitine infusion by 50%, ie. the ED 50%, was determined from the linear relationship between log dose (mg/kg) of the test substances and the relative prolongation of aconitine infusion duration (Δ%).

Series [1] is described as follows: Acute toxicity: dose at which first toxic symptoms (change in initial ECG, cyanosis or cramp) occur, rat, oral. It counts as in vivo, Sprague-Dawley rats. As to conditions: Table 2, oral administration, geometric progression of doses (factor 2.154). The procedure:
as §1
(§3) Furthermore, the dose at which toxic symptoms (change in the initial ECG, cyanosis or cramp) occur was determined from the geometric progression of doses (factor 2.154) used in the experiments.

A short description of series [2]: Therapeutic index: quotient of acute toxic dose to antiarrhythmic ED 50%. The arrangement: species or system Sprague-Dawley rats. As to conditions: in vivo; Table 2; rat, oral administration; measure of therapeutic index; read-out: Q (quotient of acute toxic dose to antiarrhythmic ED 50%). The procedure: as §1, §2, §3
The quotient of acute toxic dose to antiarrhythmic ED 50% was determined as a measure of the therapeutic index of the novel compounds.

Molecules are shown by their SMILES. Counter-ions that a name gives are not always drawn.

As to `COCC(C)NCC(C)(O)CC1c2ccccc2CCc2ccccc21` (stereo not shown) [Example 6], the ED50 with arrhythmias came out at 6.83 mg/kg.

For `C=C[C@H]1C[N@@]2CC[C@H]1C[C@@H]2[C@@H](O)c1ccnc2ccc(OC)cc12` [Quinidine, quinidine, reference compound], the “Toxic dose (dose at which the first toxic symptoms are observed)” value (from here on “Toxic dose”) in series [1] is 464 mg/kg. The selectivity ratio in series [2] amounted to 11. Besides, in the series on arrhythmias (Table 2, rat, oral administration, 60 minutes before aconitine i.v. infusion 0.005 mg per kg per min), the “ED 50% (dose which prolongs the aconitine infusion duration by 50%)” value came out at 43.5 mg/kg.

Regarding `CC(C)NCC(C)(O)CC1c2ccccc2CCc2ccccc21` (stereo not shown) [Example 1, N-[2-hydroxy-2-methyl-3-(10,11-dihydro-5H-dibenzocycloheptadienyl)-propyl]-N-isopropylamine hydrochloride], the ED50 with arrhythmias came out at 6.51 mg/kg.

Regarding `CC(O)(CNC(C)(C)C)CC1c2ccccc2CCc2ccccc21` (stereo not shown) [Example 4], the “Toxic dose” value in series [1] was 215 mg/kg. For the same compound, the selectivity ratio in series [2] was determined as 33. Besides, the ED50 with arrhythmias worked out at 6.47 mg/kg.

With `CCCNCC(C)(O)CC1c2ccccc2CCc2ccccc21` (stereo not shown) [Example 5], in the series with arrhythmias, the ED50 worked out at 7.78 mg/kg.

Consider `CC(O)(CC1c2ccccc2CCc2ccccc21)CN1CCC(O)(c2ccccc2)CC1` (stereo not shown) [Example 9], for which, in the series on arrhythmias, the ED50 is 2.57 mg/kg.

In the case of `CNCC(C)(O)CC1c2ccccc2CCc2ccccc21` (stereo not shown) [Example 3], in series [1], the “Toxic dose” value was found to be 100 mg/kg. In addition, the selectivity ratio in series [2] came to 32. Further, the ED50 with arrhythmias was found to be 3.11 mg/kg.
